In US4803208A, “Opiate agonists and antagonists” (Sloan-Kettering Institute For Cancer Research, priority 1985, dated 1989):
Several values for one entry are separate records, joined by “and”; a condition that tells them apart may be missing. Equal values may be shown once.

How the values were obtained:
[1] = currently available agents; cited from earlier work
[2] = system: prolactin release; details: cited from earlier work
[3] = system: growth hormone release; details: cited from earlier work
[4] = system: growth hormone release; test: Growth hormone release in vivo; details: in vivo
[5] = system: prolactin release; test: Prolactin release in vivo; details: in vivo
[6] = system: rats; assay type: in vivo, rat; details: 50 mg/kg intravenously
Description: They were then food deprived for 24 hours but allowed free access to water. Five rats received saline, four received naloxone and three naloxazone. […] The animals were then given free access to food for 1 hour and their weight gain noted. Thus, eating was measured 24 hours after the administration of the drugs and after 24 hours of food deprivation.

[7] = system: rats; details: cited from earlier work

## C=CCN1CC[C@]23c4c5ccc(O)c4O[C@H]2C(=O)CC[C@@]3(O)[C@H]1C5 [Naloxone, naloxone]
[1]
  half-life (in words): short half-life
[2]
  effect on basal levels of prolactin, naloxone (in words): lowering of the basal levels of prolactin and growth hormone
[3]
  effect on basal levels of growth hormone, naloxone (in words): lowering of the basal levels of prolactin and growth hormone
[4]
  effect on growth hormone release (in words): inhibits morphine's release of both hormones
[5]
  effect on prolactin release (in words): inhibits morphine's release of both hormones
[6]
  effect on feeding (in words): inability of naloxone to effect feeding behavior
[6]; 1 hour free access to food, 24 hours after drug
  Amounts eaten, individual animals: 4.1 grams and 5.3 grams and 4.4 grams and 3.7 grams
[6]; 1 hour free access to food, 24 hours after drug, saline 4.78 ± 0.42, significant at the p 0.05 level (ANOVA)
  Amounts eaten, Mean ± SEM: 4.38 ± 0.34 grams
[7]
  suppression of eating behavior (known): effectively suppress eating behavior in rats
